Measured values from the supplement of paper PMC8920030.

How the values were obtained:
Conditions in all cases: growth mode: biofilm, 24 h; exposure time: 24 h
tobramycin [1] = compound: T1, NC[C@H]1O[C@H](O[C@H]2[C@H](O)[C@@H](O[C@H]3O[C@H](CO)[C@@H](O)[C@H](N)[C@H]3O)[C@H](N)C[C@@H]2N)[C@H](N)C[C@@H]1O [tobramycin]; test: minimum concentration of killing, 2-log CFU reduction of biofilm (MCK99); higher = more biofilm tolerance
Procedure: (§1)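 Clinical P. aeruginosa isolates were grown as static biofilms for 24 h at 37 °C in LB in half-area 96-well plates, then exposed for 24 h to tobramycin at 1, 4, 16, 64, 256 or […]. Surviving CFU were counted by spotting serial dilutions. MCK is the lowest tested concentration giving the stated log reduction in CFU versus an untreated control; '>1024' means the reduction was not reached at the top dose, and 1 is the lowest dose tested (≤1).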

tobramycin [2] = compound: T1, tobramycin; test: minimum concentration eradicating biofilm below detection limit (MCK-E); higher = more biofilm tolerance
Procedure: as §1

tobramycin [3] = compound: T1, tobramycin; test: minimum concentration of killing, 1-log CFU reduction of biofilm (MCK90); higher = more biofilm tolerance
Procedure: as §1

colistin [4] = compound: T2, CCC(C)CCCC(=O)N[C@@H](CCN)C(=O)N[C@H](C(=O)N[C@@H](CCN)C(=O)N[C@H]1CCNC(=O)[C@H]([C@@H](C)O)NC(=O)[C@H](CCN)NC(=O)[C@H](CCN)NC(=O)[C@H](CC(C)C)NC(=O)[C@@H](CC(C)C)NC(=O)[C@H](CCN)NC1=O)[C@@H](C)O [colistin]; test: as above
Procedure: (§2)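 Clinical P. aeruginosa isolates were grown as static biofilms for 24 h at 37 °C in LB in half-area 96-well plates, then exposed for 24 h to colistin at 1, 4, 16, 64, 256 or […]. Surviving CFU were counted by spotting serial dilutions. MCK is the lowest tested concentration giving the stated log reduction in CFU versus an untreated control; '>1024' means the reduction was not reached at the top dose, and 1 is the lowest dose tested (≤1).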

colistin [5] = compound: T2, colistin; test: minimum concentration of killing, 4-log CFU reduction of biofilm (MCK99.99); higher = more biofilm tolerance
Procedure: as §2

tobramycin [6] = compound: T1, tobramycin; test: as above
Procedure: as §1

colistin [7] = compound: T2, colistin; test: minimum concentration eradicating biofilm below detection limit (MCK-E); higher = more biofilm tolerance
Procedure: as §2

colistin [8] = compound: T2, colistin; test: minimum concentration of killing, 2-log CFU reduction of biofilm (MCK99); higher = more biofilm tolerance
Procedure: as §2

Test System: Pseudomonas aeruginosa clinical isolate CH2522
- minimum concentration of killing (tobramycin [1]): 16 µg/mL
- minimum concentration eradicating biofilm below detection limit (tobramycin [2]): 1020 µg/mL
- minimum concentration of killing (tobramycin [3]): 16 µg/mL
- minimum concentration of killing (colistin [4]): 64 µg/mL
- minimum concentration of killing (colistin [5]): 256 µg/mL
- minimum concentration of killing (tobramycin [6]): 1020 µg/mL
- minimum concentration eradicating biofilm below detection limit (colistin [7]): 256 µg/mL
- minimum concentration of killing (colistin [8]): 64 µg/mL

Test System: Pseudomonas aeruginosa clinical isolate CH2527
- minimum concentration of killing (tobramycin [1]): 64 µg/mL
- minimum concentration eradicating biofilm below detection limit (tobramycin [2]): 1020 µg/mL
- minimum concentration of killing (tobramycin [3]): 64 µg/mL
- minimum concentration of killing (colistin [4]): 256 µg/mL
- minimum concentration of killing (colistin [5]): 256 µg/mL
- minimum concentration of killing (tobramycin [6]): 256 µg/mL
- minimum concentration eradicating biofilm below detection limit (colistin [7]): 256 µg/mL
- minimum concentration of killing (colistin [8]): 256 µg/mL

Test System: Pseudomonas aeruginosa clinical isolate CH5531
- minimum concentration of killing (tobramycin [1]): 256 µg/mL
- minimum concentration eradicating biofilm below detection limit (tobramycin [2]): 1020 µg/mL
- minimum concentration of killing (tobramycin [3]): 16 µg/mL
- minimum concentration of killing (tobramycin [6]): 256 µg/mL

Test System: Pseudomonas aeruginosa clinical isolate CH5548
- minimum concentration of killing (tobramycin [1]): 4 µg/mL
- minimum concentration eradicating biofilm below detection limit (tobramycin [2]): 64 µg/mL
- minimum concentration of killing (tobramycin [3]): 4 µg/mL
- minimum concentration of killing (tobramycin [6]): 16 µg/mL

Test System: Pseudomonas aeruginosa clinical isolate CH5591
- minimum concentration of killing (tobramycin [1]): 1020 µg/mL
- minimum concentration eradicating biofilm below detection limit (tobramycin [2]): > 1020 µg/mL
- minimum concentration of killing (tobramycin [3]): 1020 µg/mL
- minimum concentration of killing (tobramycin [6]): > 1020 µg/mL

Test System: Pseudomonas aeruginosa clinical isolate ESP057
- minimum concentration eradicating biofilm below detection limit (tobramycin [2]): 256 µg/mL
- minimum concentration of killing (tobramycin [3]): ≤ 1 µg/mL
- minimum concentration of killing (colistin [4]): 256 µg/mL
- minimum concentration of killing (colistin [5]): 256 µg/mL
- minimum concentration of killing (tobramycin [6]): 256 µg/mL
- minimum concentration eradicating biofilm below detection limit (colistin [7]): 256 µg/mL
- minimum concentration of killing (colistin [8]): 256 µg/mL

Test System: Pseudomonas aeruginosa clinical isolate F1659
- minimum concentration of killing (tobramycin [1]): 16 µg/mL
- minimum concentration eradicating biofilm below detection limit (tobramycin [2]): 1020 µg/mL
- minimum concentration of killing (tobramycin [3]): 4 µg/mL
- minimum concentration of killing (colistin [4]): 16 µg/mL
- minimum concentration of killing (colistin [5]): 64 µg/mL
- minimum concentration of killing (tobramycin [6]): 256 µg/mL
- minimum concentration of killing (colistin [8]): 64 µg/mL

Test System: Pseudomonas aeruginosa clinical isolate F1689
- minimum concentration of killing (tobramycin [1]): 4 µg/mL
- minimum concentration of killing (tobramycin [3]): 4 µg/mL

Test System: Pseudomonas aeruginosa clinical isolate F1748
- minimum concentration of killing (tobramycin [1]): 16 µg/mL
- minimum concentration eradicating biofilm below detection limit (tobramycin [2]): 256 µg/mL
- minimum concentration of killing (tobramycin [3]): 4 µg/mL
- minimum concentration of killing (colistin [4]): 256 µg/mL
- minimum concentration of killing (colistin [5]): 256 µg/mL
- minimum concentration of killing (tobramycin [6]): 16 µg/mL
- minimum concentration of killing (colistin [8]): 256 µg/mL

Test System: Pseudomonas aeruginosa clinical isolate F1801
- minimum concentration of killing (tobramycin [1]): 4 µg/mL
- minimum concentration eradicating biofilm below detection limit (tobramycin [2]): 256 µg/mL
- minimum concentration of killing (tobramycin [3]): ≤ 1 µg/mL
- minimum concentration of killing (colistin [4]): 256 µg/mL
- minimum concentration of killing (colistin [5]): 256 µg/mL
- minimum concentration of killing (tobramycin [6]): 256 µg/mL
- minimum concentration of killing (colistin [8]): 256 µg/mL

Test System: Pseudomonas aeruginosa clinical isolate F1883
- minimum concentration of killing (tobramycin [1]): 256 µg/mL
- minimum concentration of killing (tobramycin [3]): 64 µg/mL
- minimum concentration of killing (colistin [4]): 16 µg/mL
- minimum concentration of killing (colistin [5]): 1020 µg/mL
- minimum concentration eradicating biofilm below detection limit (colistin [7]): 1020 µg/mL
- minimum concentration of killing (colistin [8]): 256 µg/mL

Test System: Pseudomonas aeruginosa clinical isolate F1894
- minimum concentration of killing (tobramycin [1]): 16 µg/mL
- minimum concentration eradicating biofilm below detection limit (tobramycin [2]): 256 µg/mL
- minimum concentration of killing (tobramycin [3]): 4 µg/mL
- minimum concentration of killing (colistin [4]): 256 µg/mL
- minimum concentration of killing (colistin [5]): 256 µg/mL
- minimum concentration eradicating biofilm below detection limit (colistin [7]): 256 µg/mL
- minimum concentration of killing (colistin [8]): 256 µg/mL

Test System: Pseudomonas aeruginosa clinical isolate F1997
- minimum concentration of killing (tobramycin [1]): 64 µg/mL
- minimum concentration eradicating biofilm below detection limit (tobramycin [2]): > 1020 µg/mL
- minimum concentration of killing (tobramycin [3]): 16 µg/mL
- minimum concentration of killing (tobramycin [6]): 1020 µg/mL

Test System: Pseudomonas aeruginosa clinical isolate F2026
- minimum concentration of killing (tobramycin [1]): 256 µg/mL
- minimum concentration eradicating biofilm below detection limit (tobramycin [2]): > 1020 µg/mL
- minimum concentration of killing (colistin [4]): 256 µg/mL
- minimum concentration of killing (colistin [5]): 256 µg/mL
- minimum concentration of killing (tobramycin [6]): > 1020 µg/mL
- minimum concentration eradicating biofilm below detection limit (colistin [7]): 256 µg/mL
- minimum concentration of killing (colistin [8]): 256 µg/mL

Test System: Pseudomonas aeruginosa clinical isolate F2029
- minimum concentration eradicating biofilm below detection limit (tobramycin [2]): 256 µg/mL
- minimum concentration of killing (colistin [4]): 256 µg/mL
- minimum concentration of killing (colistin [5]): 256 µg/mL
- minimum concentration of killing (tobramycin [6]): 256 µg/mL
- minimum concentration eradicating biofilm below detection limit (colistin [7]): 256 µg/mL
- minimum concentration of killing (colistin [8]): 256 µg/mL

Test System: Pseudomonas aeruginosa clinical isolate F2030
- minimum concentration of killing (colistin [4]): 64 µg/mL
- minimum concentration of killing (colistin [5]): 256 µg/mL
- minimum concentration of killing (tobramycin [6]): 1020 µg/mL
- minimum concentration eradicating biofilm below detection limit (colistin [7]): 256 µg/mL
- minimum concentration of killing (colistin [8]): 256 µg/mL

Test System: Pseudomonas aeruginosa clinical isolate F2034
- minimum concentration of killing (colistin [4]): 64 µg/mL
- minimum concentration of killing (colistin [5]): 256 µg/mL
- minimum concentration eradicating biofilm below detection limit (colistin [7]): 256 µg/mL
- minimum concentration of killing (colistin [8]): 64 µg/mL

Test System: Pseudomonas aeruginosa clinical isolate F2035
- minimum concentration of killing (colistin [4]): 64 µg/mL
- minimum concentration of killing (colistin [5]): 256 µg/mL
- minimum concentration eradicating biofilm below detection limit (colistin [7]): 1020 µg/mL
- minimum concentration of killing (colistin [8]): 64 µg/mL

Test System: Pseudomonas aeruginosa clinical isolate F2044
- minimum concentration eradicating biofilm below detection limit (colistin [7]): 256 µg/mL

Test System: Pseudomonas aeruginosa clinical isolate F2045
- minimum concentration eradicating biofilm below detection limit (colistin [7]): > 1020 µg/mL

Test System: Pseudomonas aeruginosa clinical isolate F2059
- minimum concentration eradicating biofilm below detection limit (colistin [7]): 256 µg/mL
